Common to all, as to format: biochemical
One experiment deals with human CYP4F2 (Homo sapiens (Human), UniProt P78329). The experiment can be described thus: Inhibition test against 20-HETE producing enzyme CYP4F2 (luciferine derivative, luminescence). An outline of the steps:
(§1)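 IC50 derived from luminescence after 60 min at room temperature with membrane fractions of E. coli expressing each human CYP (100 μg/mL protein). For CYP4A11, 60 μM luciferin derivative in 100 mM Tris-HCl pH 7.5 with NADPH-regenerating system; for CYP4F2, 2.5 μM substrate, 1 mM NADPH, 50 mM KPO4 pH 7.4.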

For the next experiment, the target named is human CYP4A11 (Homo sapiens (Human), UniProt Q02928). The experiment can be described thus: Inhibition test against 20-HETE producing enzyme CYP4A11 (luciferine derivative, luminescence). An outline of the steps:
as §1

Experiment [1] has as its system 20-HETE producing enzymes, human kidney microsome. The experiment can be described thus: Inhibition test against 20-HETE producing enzymes using human kidney microsomes (LC-MS/MS). As to conditions: for inhibitory activities against 20-HETE producing enzymes compared to compound A and compound B: comparison with compound A and compound B of WO03/022821, human kidney microsomes; for IC50: human kidney microsome 250 μg/mL protein, 20 μM arachidonic acid, 37° C. 45 minutes, LC-MS/MS. Here is the method:
(1) Inhibition Test for Each Compound of the Present Invention Against 20-HETE Producing Enzymes Using Human Kidney Microsomes
The reaction solution containing each compound [final concentration of 100 mM, KPO4 (pH 7.4), 20 μM Arachidonic acid, 4 mM NADPH] was added to the human kidney microsome (250 μg/mL protein). Following this, the microsome was left to stand at 37° C. for 45 minutes to perform 20-HETE producing reaction. After adding formic acid to stop the reaction, 9 times amount of acetonitrile was added, and deproteinization was carried out by centrifugation (1000 rpm, 4° C., 10 minutes). After that, the peak area value of 20-HETE was measured using a liquid chromatograph-tandem mass spectrometer (LC-MS/MS), and by using that value, the percent inhibition of 20-HETE producing enzyme (%) was calculated according to the equation described below, and the 50% inhibitory concentration (IC50 value) for each compound was calculated. Percent inhibition of 20-HETE producing enzyme (%)=[1−(A−B)/(C−B)]*100
A: Peak area value of 20-HETE/peak area value of internal standard substance with addition of compound
B: Peak area value of 20-HETE/peak area value of internal standard substance without addition of compound and NADPH
C: Peak area value of 20-HETE/peak area value of internal standard substance without addition of compound
(3) Inhibition Test for Compound a and Compound B Disclosed in WO03/022821 Against 20-HETE Producing Enzymes Using Human Kidney Microsomes
For compound A and compound B disclosed in WO03/022821, which have been described above, the 50% inhibitory concentration (IC50 value) against 20-HETE producing enzymes was calculated according to the method described in Test Example 2.
On the other hand, as described above, in Test Example 2, nonradioactive arachidonic acid was used as a substrate for 20-HETE producing reaction, and the amount of 20-HETE produced was measured using LC-MS/MS. In this case, the concentration of arachidonic acid, the substrate, is 20 μM.
In recent years, it is recommended that the substrate concentration for calculating the IC50 value be set at the Km value (Assay Guidance Manual, Sittampalam et. al. (URL: http://www.ncbi.nlm.nih.gov/books/NBK53196/)). According to this, in Test Example 2 described above, human kidney microsomes were used to calculate the Km value, and the calculated Km value of 20 μM was set as the concentration of the substrate, arachidonic acid.

The target in the next experiment is human CYP4V2 (Homo sapiens (Human), UniProt Q6ZWL3). The experiment can be described thus: CYP4V2 selectivity test. The note with it: cell membrane fraction expressing human CYP4V2, 7 μM luciferine derivative, 40 minutes. As to the method: (3) CYP4V2 Selectivity Test for Each Compound of the Present Invention
(§2) The reaction solution containing each compound [final concentration of 100 mM KPO4 (pH 7.4), 7 μM luciferine derivative, and 1 mM NADPH] was added to a cell membrane fraction (38 μg/mL protein) in which human CYP4V2 had been expressed. Following this, the cell membrane fraction was left to stand at room temperature for 40 minutes to perform an enzymatic reaction. After the reaction, a luciferine detection reagent was added, and the luminescence value was measured using a plate reader. By using that value, the percent inhibition of the enzymatic reaction of CYP4V2(%) was calculated according to the equation described below, and the 50% inhibitory concentration (IC50 value) for each compound was calculated. Percent inhibition of CYP4V2 enzyme (%)=[1−(A−B)/(C−B)]*100
(§3) A: Luminescence value with addition of compound
(§4) B: Luminescence value without addition of compound and enzyme
(§5) C: Luminescence value without addition of compound

The next experiment addresses human CYP4F22 (Homo sapiens (Human), UniProt Q6NT55). As to the kind of experiment: CYP4F22 selectivity test. The note with it: cell membrane fraction expressing human CYP4F22, 14 μM luciferine derivative, 50 minutes. As to the method: (1) CYP4F22 Selectivity Test for Each Compound of the Present Invention
as §2, with “7.4), 14” for “7.4), 7”, “fraction (30” for “fraction (38”, “human CYP4F22” for “human CYP4V2”, “for 50” for “for 40”, “of CYP4F22(%)” for “of CYP4V2(%)”, “of CYP4F22” for “of CYP4V2”
as §3, §4, §5

[2] abbreviates: E. coli membrane fraction expressing human CYP4F2, 2.5 μM luciferine derivative, room temperature 60 minutes.
Setting [3] is: E. coli membrane fraction expressing human CYP4A11, 60 μM luciferine derivative, room temperature 60 minutes.
Where [4] appears, read: human CYP4F2, luciferine derivative, luminescence.
Setting [5] is: human CYP4A11, luciferine derivative, luminescence.

Sequence of human CYP4V2 (Q6ZWL3 whole entry): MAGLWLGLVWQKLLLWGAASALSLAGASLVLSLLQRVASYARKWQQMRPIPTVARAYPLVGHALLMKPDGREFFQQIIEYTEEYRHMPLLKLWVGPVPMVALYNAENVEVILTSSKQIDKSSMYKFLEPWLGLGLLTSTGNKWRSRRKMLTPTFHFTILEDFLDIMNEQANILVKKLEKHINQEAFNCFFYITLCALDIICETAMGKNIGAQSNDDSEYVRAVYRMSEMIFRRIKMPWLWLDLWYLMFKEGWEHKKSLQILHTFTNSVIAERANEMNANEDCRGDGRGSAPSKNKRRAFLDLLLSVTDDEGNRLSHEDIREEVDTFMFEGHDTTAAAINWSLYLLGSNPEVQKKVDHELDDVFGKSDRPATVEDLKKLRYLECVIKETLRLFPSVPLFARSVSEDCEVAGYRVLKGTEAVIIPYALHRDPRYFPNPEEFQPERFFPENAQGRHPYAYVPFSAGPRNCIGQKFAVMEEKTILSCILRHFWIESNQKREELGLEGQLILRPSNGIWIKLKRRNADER
Sequence of human CYP4F2 (P78329 5-520): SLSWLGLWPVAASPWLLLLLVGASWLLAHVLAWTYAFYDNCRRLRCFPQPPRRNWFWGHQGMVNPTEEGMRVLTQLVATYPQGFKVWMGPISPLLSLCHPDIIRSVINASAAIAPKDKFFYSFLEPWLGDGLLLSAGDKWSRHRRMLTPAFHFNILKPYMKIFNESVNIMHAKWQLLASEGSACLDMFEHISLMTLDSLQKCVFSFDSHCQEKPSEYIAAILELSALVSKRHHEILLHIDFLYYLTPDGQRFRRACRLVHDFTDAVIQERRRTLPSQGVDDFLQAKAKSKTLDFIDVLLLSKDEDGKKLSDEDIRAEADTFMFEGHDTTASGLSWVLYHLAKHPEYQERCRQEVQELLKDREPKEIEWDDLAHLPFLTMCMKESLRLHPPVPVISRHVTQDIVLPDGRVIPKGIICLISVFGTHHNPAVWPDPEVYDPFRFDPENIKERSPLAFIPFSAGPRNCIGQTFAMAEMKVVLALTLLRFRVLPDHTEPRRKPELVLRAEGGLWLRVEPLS
Sequence of human CYP4A11 (Q02928 5-519): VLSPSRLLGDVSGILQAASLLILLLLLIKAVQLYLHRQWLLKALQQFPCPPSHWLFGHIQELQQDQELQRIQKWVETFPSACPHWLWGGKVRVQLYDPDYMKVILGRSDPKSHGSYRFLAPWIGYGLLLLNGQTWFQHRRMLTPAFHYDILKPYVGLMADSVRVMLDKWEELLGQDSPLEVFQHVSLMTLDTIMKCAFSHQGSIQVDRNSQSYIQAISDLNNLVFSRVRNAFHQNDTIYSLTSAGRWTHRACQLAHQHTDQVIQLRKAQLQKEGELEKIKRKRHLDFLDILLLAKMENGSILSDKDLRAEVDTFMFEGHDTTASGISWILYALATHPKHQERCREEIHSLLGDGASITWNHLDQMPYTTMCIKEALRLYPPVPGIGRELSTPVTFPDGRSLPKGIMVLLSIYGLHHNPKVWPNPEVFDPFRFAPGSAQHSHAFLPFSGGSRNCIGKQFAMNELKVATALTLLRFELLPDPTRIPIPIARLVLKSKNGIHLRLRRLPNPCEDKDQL
Sequence of human CYP4F22 (Q6NT55 whole entry): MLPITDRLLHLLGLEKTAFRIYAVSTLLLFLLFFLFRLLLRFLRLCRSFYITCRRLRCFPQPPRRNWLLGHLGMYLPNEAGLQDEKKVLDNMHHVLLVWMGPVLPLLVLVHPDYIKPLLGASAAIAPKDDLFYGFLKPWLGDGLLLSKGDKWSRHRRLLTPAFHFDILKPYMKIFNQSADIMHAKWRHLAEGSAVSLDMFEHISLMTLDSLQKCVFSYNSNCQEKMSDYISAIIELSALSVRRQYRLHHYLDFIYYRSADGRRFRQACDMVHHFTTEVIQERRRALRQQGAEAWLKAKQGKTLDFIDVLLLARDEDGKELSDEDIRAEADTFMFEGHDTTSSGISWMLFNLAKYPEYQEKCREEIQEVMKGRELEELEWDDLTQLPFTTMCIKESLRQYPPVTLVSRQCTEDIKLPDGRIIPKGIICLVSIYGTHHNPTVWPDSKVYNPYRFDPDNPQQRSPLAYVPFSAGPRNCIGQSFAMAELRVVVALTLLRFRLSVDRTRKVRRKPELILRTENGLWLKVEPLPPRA

`O=C(O)C1CCCN(S(=O)(=O)c2cccc(COc3ccc(-c4ccn[nH]4)nc3)c2)C1` (stereo not shown) [Example 22-9]: the half-inhibitory concentration (IC50) against human CYP4F2 (setting [2]) is 180 nM; at human CYP4A11 (setting [3]) it was 45 nM; in experiment [1], 15 nM. In addition, in experiment [1], the “inhibitory activities against 20-HETE producing enzymes compared to compound A and compound B” value was “stronger inhibitory activities”.
Take `O=C(O)C1CC1c1cccc(CCOc2ccc(-c3ccn[nH]3)nc2)c1` (stereo not shown) [Example 70-7]: the half-inhibitory concentration (IC50) at human CYP4F2 (setting [4]) is 320 nM; against human CYP4V2 it was 2900 nM; on human CYP4A11 (setting [5]), 50 nM; against human CYP4F22, 1400 nM; in experiment [1], 16 nM.
In the case of `O=C(O)C1(CCCCCCCCOc2ccc(-c3ccn[nH]3)nc2)CCOCC1` [Example 3-1, 4-[8-[[6-(1H-Pyrazol-5-yl)-3-pyridinyl]oxy]octyl]-4-oxanecarboxylic Acid], the IC50 on human CYP4F2 (setting [2]) was 24 nM; against human CYP4A11 (setting [3]), 190 nM; in experiment [1] it was 10 nM. Also, the “inhibitory activities against 20-HETE producing enzymes compared to compound A and compound B” value in experiment [1] is “stronger inhibitory activities”.
On to `CC(=O)N1CCN(CCOc2ccc(-c3ccn[nH]3)cc2)CC1` [Compound A, reference compound], for which the figures for the IC50 (at human CYP4F2 (setting [2]); against human CYP4A11 (setting [3]); in experiment [1]) were 1000 nM, 11000 nM and 408 nM, respectively.
Consider `O=C(O)C1(CCCCCCCCOc2ccc(-c3ccn[nH]3)nc2)CS(=O)(=O)C1` [Example 73-1, 1,1-Dioxo-3-[8-[6-(1H-pyrazol-5-yl)pyridin-3-yl]oxyoctyl]thietane-3-carboxylic Acid], for which the half-inhibitory concentration (IC50) stood at 12 nM against human CYP4F2 (setting [4]); 660 nM against human CYP4V2; 160 nM against human CYP4A11 (setting [5]); 2300 nM against human CYP4F22; 1.7 nM in experiment [1].
For the compound `CC(C)(COCCCCCCOc1ccc(-c2ccn[nH]2)nc1)C(=O)O` [Example 1-57, 2,2-Dimethyl-3-[6-[[6-(1H-pyrazol-5-yl)-3-pyridinyl]oxy]hexoxy]propanoic Acid], the figures for the concentration for half-maximal inhibition (IC50) (against human CYP4F2 (setting [2]); against human CYP4A11 (setting [3]); in experiment [1]) were 340 nM, 110 nM and 19 nM, respectively. The “inhibitory activities against 20-HETE producing enzymes compared to compound A and compound B” value in experiment [1] is reported as “stronger inhibitory activities”.
Take `O=C(O)C1CC1c1cccc(COc2ccc(-c3ccn[nH]3)nc2)c1` (single isomer, unassigned) [Example 26-2, trans-2-[3-[[6-(1H-Pyrazol-5-yl)-3-pyridinyl]oxymethyl]phenyl]-1-cyclopropanecarboxylic Acid (Optically Active Substance)]: the IC50 worked out at 890 nM at human CYP4F2 (setting [2]), 23 nM at human CYP4A11 (setting [3]) and 26 nM in experiment [1]. Besides, in experiment [1], the “inhibitory activities against 20-HETE producing enzymes compared to compound A and compound B” value is “stronger inhibitory activities”.
Turning to `O=C(O)C1(F)CCN(S(=O)(=O)c2cccc(COc3ccc(-c4ccn[nH]4)nc3)c2)C1` (stereo not shown) [Example 22-11], the IC50 against human CYP4F2 (setting [2]) turned out to be 700 nM; at human CYP4A11 (setting [3]), 28 nM; in experiment [1], 15 nM. In experiment [1], the “inhibitory activities against 20-HETE producing enzymes compared to compound A and compound B” value was “stronger inhibitory activities”.
For `O=C(O)[C@@H]1C[C@H]1c1cccc(CCOc2ccc(-c3ccn[nH]3)nc2)c1F` [Example 74-5], the 50% inhibitory concentration (IC50) on human CYP4F2 (setting [4]) came to 80 nM; at human CYP4V2, 5000 nM; on human CYP4A11 (setting [5]) it was 88 nM; at human CYP4F22, 3000 nM; in experiment [1], 9.1 nM.
As for `O=C(O)C1CC1c1cccc(COc2ccc(-c3ccn[nH]3)nc2)c1` (single isomer, unassigned) [Example 26-3, trans-2-[3-[[6-(1H-Pyrazol-5-yl)-3-pyridinyl]oxymethyl]phenyl]-1-cyclopropanecarboxylic Acid (Optically Active Substance, Enantiomer of Compound of Example 26-2)], the 50% inhibitory concentration (IC50) against human CYP4F2 (setting [2]) turned out to be 1500 nM; against human CYP4A11 (setting [3]), 24 nM; in experiment [1], 30 nM. For the same compound, the “inhibitory activities against 20-HETE producing enzymes compared to compound A and compound B” value in experiment [1] was “stronger inhibitory activities”.
In the same order, the values of `CC(C)(COc1cc(COc2ccc(-c3ccn[nH]3)nc2)ccn1)C(=O)O` [Example 22-14] are 380 nM, 70 nM, 32 nM and “stronger inhibitory activities”.
As for `CCOC(=O)N1CCN(CCOc2ccc(-c3ccn[nH]3)cn2)CC1` [Compound B, reference compound], the results for the concentration for half-maximal inhibition (IC50) (on human CYP4F2 (setting [2]); at human CYP4A11 (setting [3]); in experiment [1]) were 36000 nM, over 50000 nM and 15600 nM, respectively.
`O=C(O)C1COc2ccc(COc3ccc(-c4ccn[nH]4)nc3)cc2C1` (stereo not shown) [Example 1-68]: the IC50 at human CYP4F2 (setting [2]) is 640 nM; against human CYP4A11 (setting [3]), 28 nM; in experiment [1], 26 nM. Further, the “inhibitory activities against 20-HETE producing enzymes compared to compound A and compound B” value in experiment [1] was “stronger inhibitory activities”.
For `O=C(O)c1ccc2c(c1)CC(COc1ccc(-c3ccn[nH]3)nc1)CC2` (stereo not shown) [Example 5-1, 7-[[6-(1H-Pyrazol-5-yl)-3-pyridinyl]oxymethyl]-5,6,7,8-tetrahydronaphthalene-2-carboxylic Acid], in that order: 33 nM, 22 nM, 8.2 nM and “stronger inhibitory activities”.
On to `O=C(O)C1CCc2ccc(COc3ccc(-c4ccn[nH]4)nc3)cc2O1` (stereo not shown) [Example 1-70], for which the IC50 on human CYP4F2 (setting [2]) amounted to 140 nM; against human CYP4A11 (setting [3]), 62 nM; in experiment [1], 37 nM. Besides, in experiment [1], the “inhibitory activities against 20-HETE producing enzymes compared to compound A and compound B” value is on record as “stronger inhibitory activities”.
With `O=C(O)C12CC(CCCCCCOc3ccc(-c4ccn[nH]4)nc3)(C1)C2` [Example 1-53], the figures for the IC50 (against human CYP4F2 (setting [2]); against human CYP4A11 (setting [3]); in experiment [1]) were 330 nM, 61 nM and 14 nM, respectively. The “inhibitory activities against 20-HETE producing enzymes compared to compound A and compound B” value in experiment [1] is recorded as “stronger inhibitory activities”.
In the same order, the values of `O=C(O)C1(OCCCCCCCCOc2ccc(-c3ccn[nH]3)nc2)CCOCC1` [Example 68-1, 4-[8-[[6-(1H-Pyrazol-5-yl)-3-pyridinyl]oxy]octoxy]-4-oxanecarboxylic Acid] are 39 nM, 620 nM, 6.9 nM and “stronger inhibitory activities”.
For `O=C(O)C1CCc2ccc(COc3ccc(-c4ccn[nH]4)nc3)cc2C1` (stereo not shown) [Example 1-56], in that order: 170 nM, 27 nM, 20 nM and “stronger inhibitory activities”.
